From PubChem BioAssay (NCI)
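1) Cells in 96-well plates. 2) Compound, 48 h, 5 concentrations. 3) Linear interpolation between surrounding doses. 4) Unreached endpoint = highest concentration. GI50: concentration for 50% inhibition of growth. At the TGI there is no net growth.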

How the values were obtained:
Assay in all cases: inhibition of tumour cell growth, NCI panel, 48 h
NCI-H522 lung = tested on: NCI-H522 lung
T-47D breast = tested on: T-47D breast
COLO 205 colon = tested on: COLO 205 colon
SF-539 CNS = tested on: SF-539 CNS
UACC-62 melanoma = tested on: UACC-62 melanoma
OVCAR-8 ovarian = tested on: OVCAR-8 ovarian
HT29 colon = tested on: HT29 colon
MALME-3M melanoma = tested on: MALME-3M melanoma
SK-OV-3 ovarian = tested on: SK-OV-3 ovarian
KM12 colon = tested on: KM12 colon

OCC12C3C4C5C3C1C5C42 (configuration not stated)
TGI (NCI-H522 lung): > 100 µM | TGI (T-47D breast): > 100 µM | TGI (COLO 205 colon): > 100 µM | TGI (SF-539 CNS): > 100 µM | TGI (UACC-62 melanoma): > 100 µM | TGI (OVCAR-8 ovarian): > 100 µM | TGI (HT29 colon): > 100 µM | TGI (MALME-3M melanoma): > 100 µM | TGI (SK-OV-3 ovarian): > 100 µM

O=C(NC1CCCCC1)NS(=O)(=O)c1ccc2c(c1)CCC2
TGI (NCI-H522 lung): > 100 µM | TGI (KM12 colon): > 100 µM | TGI (COLO 205 colon): > 100 µM | TGI (SF-539 CNS): > 100 µM | TGI (UACC-62 melanoma): > 100 µM | TGI (OVCAR-8 ovarian): > 100 µM | TGI (MALME-3M melanoma): > 100 µM | TGI (SK-OV-3 ovarian): > 100 µM

CCN(CC)CC1c2ccccc2C(CNc2ccccc2)N1C (configuration not stated)
TGI (NCI-H522 lung): > 100 µM | TGI (KM12 colon): > 100 µM | TGI (COLO 205 colon): > 100 µM | TGI (UACC-62 melanoma): > 100 µM | TGI (OVCAR-8 ovarian): > 100 µM | TGI (MALME-3M melanoma): > 100 µM | TGI (SK-OV-3 ovarian): > 100 µM

N#CC(=C1C=CC(=NO)C=C1)c1ccc(Cl)cc1
TGI (NCI-H522 lung): 7.66 µM | TGI (KM12 colon): 3.98 µM | TGI (COLO 205 colon): 34.5 µM | TGI (SF-539 CNS): 25.4 µM | TGI (UACC-62 melanoma): 21 µM | TGI (OVCAR-8 ovarian): 60.3 µM | TGI (HT29 colon): 22.9 µM | TGI (MALME-3M melanoma): 60.7 µM | TGI (SK-OV-3 ovarian): 48.9 µM

COc1ccc(-c2[nH]c3ccccc3c2-c2ccc(OC)cc2)cc1
GI50 (NCI-H522 lung): 12 µM | TGI (NCI-H522 lung): 40.7 µM | GI50 (KM12 colon): 2.48 µM | TGI (KM12 colon): 6.64 µM | GI50 (T-47D breast): 3.28 µM | TGI (T-47D breast): 20.6 µM | GI50 (COLO 205 colon): 4.13 µM | TGI (COLO 205 colon): 16.8 µM | GI50 (SF-539 CNS): 3.05 µM | TGI (SF-539 CNS): 10.4 µM | GI50 (UACC-62 melanoma): 6.25 µM | TGI (UACC-62 melanoma): 22 µM | GI50 (OVCAR-8 ovarian): 10.3 µM | TGI (OVCAR-8 ovarian): 35.8 µM | GI50 (HT29 colon): 2.99 µM | TGI (HT29 colon): 11.9 µM | GI50 (SK-OV-3 ovarian): 5.85 µM | TGI (SK-OV-3 ovarian): 26.6 µM

CC(=O)CN(Cc1cc(C)c2c(c1)c1ccccc1n2Cc1ccccc1)S(=O)(=O)c1ccc(C)cc1
TGI (NCI-H522 lung): > 100 µM | TGI (KM12 colon): > 100 µM | TGI (COLO 205 colon): > 100 µM | TGI (SF-539 CNS): > 100 µM | TGI (UACC-62 melanoma): > 100 µM | TGI (OVCAR-8 ovarian): > 100 µM | TGI (HT29 colon): > 100 µM | TGI (MALME-3M melanoma): > 100 µM | TGI (SK-OV-3 ovarian): > 100 µM

CC(=O)Nc1ccc(C(O)/C(=N/N)c2nc3ccc(Cl)cc3[nH]c2=O)cc1 (configuration not stated)
TGI (NCI-H522 lung): > 100 µM | TGI (KM12 colon): > 100 µM | TGI (T-47D breast): > 100 µM | TGI (COLO 205 colon): > 100 µM | TGI (SF-539 CNS): > 100 µM | TGI (UACC-62 melanoma): > 100 µM | TGI (OVCAR-8 ovarian): > 100 µM | TGI (HT29 colon): > 100 µM | TGI (MALME-3M melanoma): > 100 µM

Cc1ccc2c(C3Cc4ccccc4N3C(=O)/C=C\C(=O)O)c(C)[nH]c2c1 (configuration not stated)
TGI (NCI-H522 lung): 48.6 µM | TGI (KM12 colon): > 100 µM | TGI (COLO 205 colon): 58.5 µM | TGI (SF-539 CNS): > 100 µM | TGI (UACC-62 melanoma): 97.6 µM | TGI (OVCAR-8 ovarian): > 100 µM | TGI (HT29 colon): > 100 µM | TGI (MALME-3M melanoma): > 100 µM | TGI (SK-OV-3 ovarian): > 100 µM

Fc1ccc(C2SCc3nc4ccccc4n32)c(F)c1 (configuration not stated)
TGI (NCI-H522 lung): > 100 µM | TGI (KM12 colon): > 100 µM | TGI (COLO 205 colon): > 100 µM | TGI (SF-539 CNS): > 100 µM | TGI (UACC-62 melanoma): > 100 µM | TGI (OVCAR-8 ovarian): > 100 µM | TGI (HT29 colon): > 100 µM | TGI (MALME-3M melanoma): > 100 µM | TGI (SK-OV-3 ovarian): > 100 µM

COc1ccc(C=O)c([N+](=O)[O-])c1
TGI (NCI-H522 lung): > 100 µM | TGI (KM12 colon): > 100 µM | TGI (COLO 205 colon): > 100 µM | TGI (SF-539 CNS): 47.2 µM | TGI (UACC-62 melanoma): > 100 µM | TGI (OVCAR-8 ovarian): > 100 µM | TGI (HT29 colon): 63.8 µM | TGI (MALME-3M melanoma): > 100 µM | TGI (SK-OV-3 ovarian): > 100 µM

CC#CCC1CCC(OCC)=CC1=O (configuration not stated)
TGI (NCI-H522 lung): > 100 µM | TGI (KM12 colon): > 100 µM | TGI (COLO 205 colon): > 100 µM | TGI (SF-539 CNS): > 100 µM | TGI (UACC-62 melanoma): > 100 µM | TGI (OVCAR-8 ovarian): > 100 µM | TGI (HT29 colon): > 100 µM | TGI (SK-OV-3 ovarian): > 100 µM

CC(=O)NC(CCCNC(=O)N(CCCl)N=O)C(=O)NCc1ccccc1 (configuration not stated)
TGI (NCI-H522 lung): > 100 µM | TGI (KM12 colon): > 100 µM | TGI (COLO 205 colon): > 100 µM | TGI (SF-539 CNS): 69.6 µM | TGI (UACC-62 melanoma): > 100 µM | TGI (OVCAR-8 ovarian): > 100 µM | TGI (HT29 colon): > 100 µM | TGI (MALME-3M melanoma): > 100 µM

Cc1ccc(-c2nnc(-c3nn(-c4ccccc4)c4nc5ccccc5nc34)o2)cc1
TGI (NCI-H522 lung): 48.7 µM | TGI (KM12 colon): > 100 µM | TGI (COLO 205 colon): > 100 µM | TGI (SF-539 CNS): 9.62 µM | TGI (UACC-62 melanoma): 30.8 µM | TGI (OVCAR-8 ovarian): 25.7 µM | TGI (HT29 colon): > 100 µM | TGI (SK-OV-3 ovarian): 24.4 µM

O=C1OC(Cc2ccccc2)(N2CCCC2=O)C1c1ccccc1 (configuration not stated)
TGI (NCI-H522 lung): > 100 µM | TGI (KM12 colon): > 100 µM | TGI (COLO 205 colon): > 100 µM | TGI (UACC-62 melanoma): > 100 µM | TGI (OVCAR-8 ovarian): > 100 µM | TGI (HT29 colon): > 100 µM | TGI (MALME-3M melanoma): > 100 µM | TGI (SK-OV-3 ovarian): > 100 µM

COc1cc(N2C(=O)[C@H](O)C2c2ccc(SC)cc2)cc(OC)c1OC (some centres not stated)
GI50 (NCI-H522 lung): < 0.01 µM | GI50 (KM12 colon): < 0.01 µM | TGI (KM12 colon): > 100 µM | GI50 (COLO 205 colon): 0.0101 µM | TGI (COLO 205 colon): 0.0357 µM | GI50 (SF-539 CNS): < 0.01 µM | GI50 (UACC-62 melanoma): < 0.01 µM | TGI (UACC-62 melanoma): > 100 µM | GI50 (OVCAR-8 ovarian): < 0.01 µM | TGI (OVCAR-8 ovarian): 22.4 µM | GI50 (HT29 colon): < 0.01 µM | TGI (HT29 colon): 0.0887 µM | GI50 (MALME-3M melanoma): 21.6 µM | TGI (MALME-3M melanoma): 74 µM | GI50 (SK-OV-3 ovarian): 0.0142 µM | TGI (SK-OV-3 ovarian): > 100 µM

CCOC(=O)C1C(=S)NC(=O)C1C#N (configuration not stated)
TGI (NCI-H522 lung): > 100 µM | TGI (KM12 colon): > 100 µM | TGI (COLO 205 colon): > 100 µM | TGI (SF-539 CNS): > 100 µM | TGI (UACC-62 melanoma): > 100 µM | TGI (OVCAR-8 ovarian): > 100 µM | TGI (HT29 colon): > 100 µM | TGI (MALME-3M melanoma): > 100 µM | TGI (SK-OV-3 ovarian): > 100 µM

O=C1NC(=O)C2C(=O)NC(=O)C1C2c1c(Cl)cccc1Cl (configuration not stated)
TGI (NCI-H522 lung): > 100 µM | TGI (KM12 colon): > 100 µM | TGI (COLO 205 colon): > 56.3 µM | TGI (SF-539 CNS): > 100 µM | TGI (UACC-62 melanoma): > 100 µM | TGI (OVCAR-8 ovarian): > 100 µM | TGI (HT29 colon): > 100 µM | TGI (MALME-3M melanoma): > 100 µM | TGI (SK-OV-3 ovarian): > 100 µM

O=C1CC(c2c[nH]c3ccccc23)C(=O)N1 (configuration not stated)
TGI (KM12 colon): > 100 µM | TGI (SF-539 CNS): > 100 µM | TGI (UACC-62 melanoma): > 100 µM | TGI (OVCAR-8 ovarian): > 100 µM | TGI (HT29 colon): > 100 µM | TGI (MALME-3M melanoma): > 100 µM | TGI (SK-OV-3 ovarian): > 100 µM

COc1cccc(OC(=O)c2ccc(C(F)(F)F)nc2Nc2cc(Cl)ccc2C)c1
GI50 (NCI-H522 lung): 10 µM | TGI (NCI-H522 lung): 71.3 µM | GI50 (KM12 colon): 20.6 µM | TGI (KM12 colon): 50 µM | GI50 (T-47D breast): 2.82 µM | TGI (T-47D breast): > 100 µM | GI50 (COLO 205 colon): 4.04 µM | TGI (COLO 205 colon): > 100 µM | GI50 (SF-539 CNS): 8.75 µM | TGI (SF-539 CNS): 32 µM | GI50 (UACC-62 melanoma): 3.3 µM | TGI (UACC-62 melanoma): 20 µM | GI50 (OVCAR-8 ovarian): 24.2 µM | TGI (OVCAR-8 ovarian): > 100 µM | GI50 (HT29 colon): 4.28 µM | TGI (HT29 colon): > 100 µM | GI50 (SK-OV-3 ovarian): 11.1 µM | TGI (SK-OV-3 ovarian): 80.7 µM

CC(=O)Nc1ccc(SC#N)c2c(NC(C)=O)cccc12
TGI (NCI-H522 lung): > 78.4 µM | TGI (KM12 colon): > 100 µM | TGI (COLO 205 colon): > 100 µM | TGI (SF-539 CNS): > 100 µM | TGI (UACC-62 melanoma): > 100 µM | TGI (OVCAR-8 ovarian): > 100 µM | TGI (HT29 colon): > 100 µM | TGI (MALME-3M melanoma): > 100 µM | TGI (SK-OV-3 ovarian): > 100 µM

CCCP1(=O)C=C(C)C(=C(Cl)Cl)C(C)=C1 (configuration not stated)
TGI (NCI-H522 lung): 36.5 µM | TGI (KM12 colon): 67.9 µM | TGI (COLO 205 colon): > 100 µM | TGI (SF-539 CNS): > 100 µM | TGI (UACC-62 melanoma): > 100 µM | TGI (OVCAR-8 ovarian): > 100 µM | TGI (HT29 colon): > 100 µM | TGI (MALME-3M melanoma): > 100 µM

COc1cccc(OC)c1C(=O)OCc1ccccc1
TGI (NCI-H522 lung): > 100 µM | TGI (KM12 colon): > 100 µM | TGI (COLO 205 colon): > 100 µM | TGI (SF-539 CNS): > 100 µM | TGI (UACC-62 melanoma): > 100 µM | TGI (OVCAR-8 ovarian): > 100 µM | TGI (HT29 colon): > 100 µM | TGI (SK-OV-3 ovarian): > 100 µM
